Measured values from patent US20090130239A1, “METHOD FOR PREVENTING OR TREATING EDEMA OR DERMATITIS USING GLEHNIA LITTORALIS FR. SCHMIDT ET MIQUEL EXTRACT” (Korea Institute of Oriental Medicine, priority 2007, published 2009).

System: TPA induced immune cell infiltration and epidermal hyperproliferation
Experiment: Histopathological analysis of ear tissues (H&E), TPA induced acute dermatitis
Type: in vivo, mouse
Conditions: ear tissue, 6 hours after TPA, extract 400 mg/kg, indomethacin 10 mg/kg, compared with TPA treated group
Description: C57BL/6J male mouse at 5 weeks (DAE HAN BIOLINK CO., LTD.), the most widely used inflammation animal model, was adapted to the experimental environment for 1 week. Total 40 mice were group into 4 (10 mice per each group). TPA (12-O-Tetrade-canoylphobol 13-acetate) was locally applied (2.5 ug/20 ul acetone) to the right ears of 6 week old mice to induce edema and dermatitis. The left ears of the mice were used as the negative control, to which an excipient (20 ul of acetone) was treated. The experimental group was treated with Glehnia littoralis Fr. Schmidt et Miquel extract (400 mg/kg) by intraperitoneal injection one hour before TPA treatment. The positive control group was administered with indomethacin (10 mg/kg) one hour before TPA treatment and the negative control was administered with saline by the same manner.
Inflammation was induced for 6 hours by the same manner as described in Experimental Example <1-1> and then the animal was sacrificed. […] In the […], edema and inflammation accompanying symptoms of migration and infiltration of polymorphonuclear leukocytes were induced. In the meantime, in the experimental group (C) administered with Glehnia littoralis Fr. […]

COc1ccc2c(c1)c(CC(=O)O)c(C)n2C(=O)c1ccc(Cl)cc1 [indomethacin]
infiltration of immune cells and epidermal hyperproliferation: inhibition
